{"source": "paper PMC4912453", "about": "(Nature chemical biology, 2016)", "format_in_all_cases": "binding", "key": {"[1]": {"target": "T1, DNA polymerase α catalytic subunit (POLA1) (Homo sapiens, UniProt P09884)", "T1 sequence (P09884 335-1257)": "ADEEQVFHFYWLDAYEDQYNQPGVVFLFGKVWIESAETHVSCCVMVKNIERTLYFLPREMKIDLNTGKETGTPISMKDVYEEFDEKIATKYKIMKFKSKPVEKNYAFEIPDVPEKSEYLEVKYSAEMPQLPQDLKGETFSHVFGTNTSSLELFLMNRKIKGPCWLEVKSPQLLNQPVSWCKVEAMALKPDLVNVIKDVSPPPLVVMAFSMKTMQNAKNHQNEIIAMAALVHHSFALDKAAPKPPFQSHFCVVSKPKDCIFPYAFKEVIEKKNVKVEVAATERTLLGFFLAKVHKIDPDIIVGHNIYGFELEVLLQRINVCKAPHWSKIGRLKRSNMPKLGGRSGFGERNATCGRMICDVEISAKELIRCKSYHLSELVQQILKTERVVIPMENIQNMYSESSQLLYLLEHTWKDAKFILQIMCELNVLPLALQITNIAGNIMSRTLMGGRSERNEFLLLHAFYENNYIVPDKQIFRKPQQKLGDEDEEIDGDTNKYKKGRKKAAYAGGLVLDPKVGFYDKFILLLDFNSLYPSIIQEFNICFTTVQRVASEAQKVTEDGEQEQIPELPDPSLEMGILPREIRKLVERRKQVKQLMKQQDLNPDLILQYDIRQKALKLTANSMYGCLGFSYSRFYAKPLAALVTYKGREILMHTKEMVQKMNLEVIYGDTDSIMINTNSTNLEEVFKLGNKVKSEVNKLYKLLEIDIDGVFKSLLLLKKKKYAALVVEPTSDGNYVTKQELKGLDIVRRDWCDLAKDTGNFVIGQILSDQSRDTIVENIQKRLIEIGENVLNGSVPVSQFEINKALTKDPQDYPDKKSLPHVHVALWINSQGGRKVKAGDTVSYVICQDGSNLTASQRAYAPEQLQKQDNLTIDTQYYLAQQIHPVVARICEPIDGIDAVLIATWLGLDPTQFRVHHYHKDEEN", "experiment": "CD437 fluorescence intensity enhancement and anisotropy titration"}, "[2]": {"target": "T2, DNA polymerase α catalytic subunit (POLA1) (Homo sapiens, UniProt P09884, L764S)", "T2 sequence (P09884 335-1257 L764S)": "T1 sequence (P09884 335-1257) with L430S", "experiment": "CD437 fluorescence intensity enhancement titration"}, "[3]": {"target": "T3, DNA polymerase α catalytic subunit (POLA1) (Homo sapiens, UniProt P09884, L700S)", "T3 sequence (P09884 335-1257 L700S)": "T1 sequence (P09884 335-1257) with L366S", "experiment": "CD437 fluorescence intensity enhancement titration"}}, "note": "Numbering of substitutions follows the chain as printed."}
{"compound": "O=C(O)c1ccc2cc(-c3ccc(O)c(C45CC6CC(CC(C6)C4)C5)c3)ccc2c1", "note": "[CD437, 6-[3-(1-adamantyl)-4-hydroxyphenyl]-2-naphthalene carboxylic acid]", "values": [{"measurement": "Kd", "setting": "[1]", "result": "67 ± 22", "unit": "nM"}, {"measurement": "Kd", "setting": "[2]", "result": "94 ± 18", "unit": "nM"}, {"measurement": "Kd", "setting": "[3]", "result": "< 5", "unit": "nM"}]}
